Test results taken from patent publication US20150307938A1, “METHOD TO IDENTIFY A NOVEL CLASS OF IMMUNOLOGIC ADJUVANTS” (Lancell, L.L.C., priority 2011, published 2015).
“And” between values parts separate entries of the source, which are not always exact repeats. Equal values may be shown once.

Tested on: skin
Test: Affymetrix microarray of skin, DBP-4 hr and analogs vs. untreated; gene selection by log-2 fold change, Wilcoxon, Kendall tau (Tables 8, 9)
Assay type: in vivo, mouse
Settings: mouse, in vivo

CCCCOC(=O)c1ccccc1C(=O)OCCCC [DBP, dibutylphthalate]
DBP LogFold-Change Versus-Untreated: Csrp1: 0.81 | DBP LogFold-Change Versus-Untreated: Cxcl1: 5.43 | DBP LogFold-Change Versus-Untreated: Cxcl2: 4.56 | DBP LogFold-Change Versus-Untreated: Cxcl16: 1.35 | DBP LogFold-Change Versus-Untreated: Cyr61: 1.59 | DBP LogFold-Change Versus-Untreated: Cytip: 1.19 | DBP LogFold-Change Versus-Untreated: Deptor: 0.99 | DBP LogFold-Change Versus-Untreated: Dusp6: 1.81 | DBP LogFold-Change Versus-Untreated: Dusp7: 1.07 | DBP LogFold-Change Versus-Untreated: Efhd2: 0.82 | DBP LogFold-Change Versus-Untreated: Egr1: 1.50 | DBP LogFold-Change Versus-Untreated: Eif1a: 0.97 | DBP LogFold-Change Versus-Untreated: Epgn: 3.82 | DBP LogFold-Change Versus-Untreated: Epha2: 0.82 | DBP LogFold-Change Versus-Untreated: Errfi1: 0.89 | DBP LogFold-Change Versus-Untreated: F2rl1: 0.78 | DBP LogFold-Change Versus-Untreated: Fam43a: 0.81 | DBP LogFold-Change Versus-Untreated: Fgfbp1: 1.01 | DBP LogFold-Change Versus-Untreated: Fkbp5: 1.19 | DBP LogFold-Change Versus-Untreated: Fosl1: 1.95 | DBP LogFold-Change Versus-Untreated: Gjb2: 1.21 | DBP LogFold-Change Versus-Untreated: Gpr35: 0.91 | DBP LogFold-Change Versus-Untreated: Gpr65: 1.35 | DBP LogFold-Change Versus-Untreated: Gyk: 1.00 | DBP LogFold-Change Versus-Untreated: Gzmb: 1.30 | DBP LogFold-Change Versus-Untreated: Havcr2: 1.89 | DBP LogFold-Change Versus-Untreated: Hbegf: 1.76 | DBP LogFold-Change Versus-Untreated: Hdc: 2.14 | DBP LogFold-Change Versus-Untreated: Icam1: 2.66 | DBP LogFold-Change Versus-Untreated: Ier2: 1.02 | DBP LogFold-Change Versus-Untreated: Ier3: 1.85 | DBP LogFold-Change Versus-Untreated: Il1b: 2.73 | DBP LogFold-Change Versus-Untreated: Il1rl1: 0.91 | DBP LogFold-Change Versus-Untreated: Il4ra: 0.81 | DBP LogFold-Change Versus-Untreated: Il6: 3.05 | DBP LogFold-Change Versus-Untreated: Il7r: 1.15 | DBP LogFold-Change Versus-Untreated: Il10ra: 0.90 | DBP LogFold-Change Versus-Untreated: Irs2: 0.94 | DBP LogFold-Change Versus-Untreated: Jun: 1.06 | DBP LogFold-Change Versus-Untreated: Junb: 1.39 | DBP LogFold-Change Versus-Untreated: Kctd11: 0.80 | DBP LogFold-Change Versus-Untreated: Klrb 1b: 1.25 | DBP LogFold-Change Versus-Untreated: Krt6a: 1.53 | DBP LogFold-Change Versus-Untreated: Krt35: 1.06 | DBP LogFold-Change Versus-Untreated: LOC100504977: 3.10 | DBP LogFold-Change Versus-Untreated: Map3k6: 1.03 | DBP LogFold-Change Versus-Untreated: Map3k8: 1.01 | DBP LogFold-Change Versus-Untreated: Mt1: 1.34 | DBP LogFold-Change Versus-Untreated: Mt2: 1.11 | DBP LogFold-Change Versus-Untreated: Nfil3: 1.60 | DBP LogFold-Change Versus-Untreated: Nfkb2: 0.94 | DBP LogFold-Change Versus-Untreated: Nr4a1: 2.09 | DBP LogFold-Change Versus-Untreated: Nr4a2: 1.39 | DBP LogFold-Change Versus-Untreated: Osmr: 0.95 | DBP LogFold-Change Versus-Untreated: Otud7a: 1.25 | DBP LogFold-Change Versus-Untreated: Pde4b: 1.44 | DBP LogFold-Change Versus-Untreated: Plaur: 1.06 | DBP LogFold-Change Versus-Untreated: Plk3: 1.00 | DBP LogFold-Change Versus-Untreated: Pmaip1: 1.47 | DBP LogFold-Change Versus-Untreated: Pprc1: 0.78 | DBP LogFold-Change Versus-Untreated: Pqlc1: 0.87 | DBP LogFold-Change Versus-Untreated: Prss22: 1.61 | DBP LogFold-Change Versus-Untreated: Ptges: 1.22 | DBP LogFold-Change Versus-Untreated: Pvr: 0.90 | DBP LogFold-Change Versus-Untreated: Pyy: 2.62 | DBP LogFold-Change Versus-Untreated: Rab20: 1.52 | DBP LogFold-Change Versus-Untreated: Ramp3: 1.20 | DBP LogFold-Change Versus-Untreated: Rgs1: 2.12 | DBP LogFold-Change Versus-Untreated: Rnf19b: 1.15 | DBP LogFold-Change Versus-Untreated: Serpine1: 2.68 | DBP LogFold-Change Versus-Untreated: Slc7a5: 1.52 | DBP LogFold-Change Versus-Untreated: Slc10a6: 1.33 | DBP LogFold-Change Versus-Untreated: Slc25a25: 1.16 | DBP LogFold-Change Versus-Untreated: Slc39a8: 1.52 | DBP LogFold-Change Versus-Untreated: Slc39a14: 0.84 | DBP LogFold-Change Versus-Untreated: Smox: 1.30 and 1.29 and 1.28 | DBP LogFold-Change Versus-Untreated: Socs2: 1.26 | DBP LogFold-Change Versus-Untreated: Socs3: 1.39 | DBP LogFold-Change Versus-Untreated: Sprr1a: 1.43 | DBP LogFold-Change Versus-Untreated: Stc1: 1.07 | DBP LogFold-Change Versus-Untreated: Stk17b: 0.89 | DBP LogFold-Change Versus-Untreated: Tnfaip2: 1.94 | DBP LogFold-Change Versus-Untreated: Tnfaip3: 2.10 | DBP LogFold-Change Versus-Untreated: Tnfaip6: 2.30 | DBP LogFold-Change Versus-Untreated: Traf1: 1.07 | DBP LogFold-Change Versus-Untreated: Uap1: 1.11 | DBP LogFold-Change Versus-Untreated: Zbtb16: 1.04 | DBP LogFold-Change Versus-Untreated: Zfp36: 1.53 | DBP LogFold-Change Versus-Untreated: Zfp593: 1.01 | Dbp NM_016974_at ≧2-Fold change: No | Deptor NM_001037937_at ≧2-Fold change: No | Dlgap4 NM_001042487_at ≧2-Fold change: No | Dlgap4 NM_001042488_at ≧2-Fold change: No | Dusp6 (NM_026268_at) ≧2-Fold change: Yes | Dusp7 (NM_153459_at) ≧2-Fold change: Yes | Ear5 NM_019398_at ≧2-Fold change: No | Epgn (NM_053087_at) ≧2-Fold change: Yes | Fam134b NM_001034851_at ≧2-Fold change: No | Gcdh NM_001044744_at ≧2-Fold change: No | Gm10228 XM_001474297_at ≧2-Fold change: No | Gm10228 XM_003086004_at ≧2-Fold change: No | Gm10229 XM_003086003_at ≧2-Fold change: No | Gsdmc NM_031378_at ≧2-Fold change: No | Gzmb (NM_013542_at) ≧2-Fold change: Yes | H19 NR_001592_at ≧2-Fold change: No | Havcr2 (NM_134250_at) ≧2-Fold change: Yes | Ier2 (NM_010499_at) ≧2-Fold change: Yes | Ier3 (NM_133662_at) ≧2-Fold change: Yes | Ifi202b (NM_011940_at) ≧2-Fold change: Yes | Il1f6 (NM_019450_at) ≧2-Fold change: Yes | Il1rl1 NM_001025602_at ≧2-Fold change: No | Il6 (NM_031168_at) ≧2-Fold change: Yes | Il20 (NM_021380_at) ≧2-Fold change: Yes | Inpp5a NM_001127363_at ≧2-Fold change: No | Inpp5d NM_001110192_at ≧2-Fold change: No | Inpp5d NM_001110193_at ≧2-Fold change: No | Jdp2 (NM_030887_at) ≧2-Fold change: Yes | Jun (NM_010591_at) ≧2-Fold change: Yes | Klhdc5 NM_001081237_at ≧2-Fold change: No | Klk6 (NM_011177_at) ≧2-Fold change: Yes | Klrb1b (NM_030599_at) ≧2-Fold change: Yes | Krt25 (NM_133730_at) ≧2-Fold change: Yes | Krt27 (NM_010666_at) ≧2-Fold change: Yes | Krt33a NM_027983_at ≧2-Fold change: No | Krt34 NM_027563_at ≧2-Fold change: No | Krt35 (NM_016880_at) ≧2-Fold change: Yes | Krt71 (NM_019956_at) ≧2-Fold change: Yes | Krtap1-5 NM_027157_at ≧2-Fold change: No | Krtap3-1 NM_023511_at ≧2-Fold change: No | Krtap3-3 NM_025524_at ≧2-Fold change: No | Krtap4-2 NM_026807_at ≧2-Fold change: No | Krtap4-16 (NM_001013823_at) ≧2-Fold change: No | Krtap5-2 NM_027844_at ≧2-Fold change: No | Krtap9-3 NM_029351_at ≧2-Fold change: No | Krtap13-1 NM_183189_at ≧2-Fold change: No | Krtap16-1 NM_130870_at ≧2-Fold change: No | Krtap16-5 NM_130857_at ≧2-Fold change: No | Krtap16-7 NM_028621_at ≧2-Fold change: No | Krtap16-8 NM_130856_at ≧2-Fold change: No | Krtap16-9 NM_130876_at ≧2-Fold change: No | Krtap16-10 NM_183296_at ≧2-Fold change: No | Krtap28-13 XM_896507_at ≧2-Fold change: No | Krtap28-13 XM_919110_at ≧2-Fold change: No | LOC100044068 (XM_001473873_at) ≧2-Fold change: Yes | LOC100503254 XM_003085741_at ≧2-Fold change: No | LOC100504977 (XM_003085794_at) ≧2-Fold change: Yes | Lmod2 NM_053098_at ≧2-Fold change: No | Lyz2 NM_017372_at ≧2-Fold change: No | Maff (NM_010755_at) ≧2-Fold change: Yes | Map3k6 (NM_016693_at) ≧2-Fold change: Yes | Mcoln2 (NM_026656_at) ≧2-Fold change: Yes | Mfhas1 NM_001081279_at ≧2-Fold change: No | Mfsd4 NM_001114662_at ≧2-Fold change: No | Mia1 NM_019394_at ≧2-Fold change: No | Mrpl44 NM_001081210_at ≧2-Fold change: No | Ms4a6d NM_026835_at ≧2-Fold change: No | Mt1 (NM_013602_at) ≧2-Fold change: Yes | Mylpf NM_016754_at ≧2-Fold change: No | Myoz2 NM_021503_at ≧2-Fold change: No | NA (AFFX-18SRNAMur/X00686_3_at) ≧2-Fold change: No | NA (AFFX-18SRNAMur/X00686_5_at) ≧2-Fold change: No | NA (AFFX-18SRNAMur/X00686_M_at) ≧2-Fold change: No | NA (AFFX-BioB-3_at) ≧2-Fold change: No | NA (AFFX-BioB-5_at) ≧2-Fold change: No | NA (AFFX-BioB-M_at) ≧2-Fold change: No | NA (AFFX-BioC-3_at) ≧2-Fold change: No | NA (AFFX-BioC-5_at) ≧2-Fold change: No | NA (AFFX-BioDn-3_at) ≧2-Fold change: No | NA (AFFX-BioDn-5_at) ≧2-Fold change: No | NA (AFFX-ThrX-5_at) ≧2-Fold change: No | Ncbp1 NM_001033201_at ≧2-Fold change: No | Nfil3 (NM_017373_at) ≧2-Fold change: Yes | Nfkbia (NM_010907_at) ≧2-Fold change: Yes | Nfkbiz (NM_030612_at) ≧2-Fold change: Yes | Nolc1 NM_001039351_at ≧2-Fold change: No | Nolc1 NM_001039352_at ≧2-Fold change: No | Nolc1 NM_001039353_at ≧2-Fold change: No | Nr4a2 (NM_013613_at) ≧2-Fold change: Yes
